Measured values as given in PubChem BioAssay (NCI).
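Grown in 96-well plates, cells were treated for 48 hours with each compound at five concentrations. Insufficient inhibition: endpoint recorded as highest concentration tested. TGI denotes the concentration required for complete inhibition of growth.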

Legend:
Test in all cases: NCI tumour cell line growth inhibition, 48 h
[1] = test system: A498 renal
[2] = test system: A549 NSCLC
[3] = test system: CAKI-1 renal
[4] = test system: CCRF-CEM leukemia
[5] = test system: COLO 205 colon
[6] = test system: DLD-1 colon
[7] = test system: DMS 114 small cell lung
[8] = test system: DMS 273 small cell lung
[9] = test system: EKVX NSCLC
[10] = test system: HCC-2998 colon
[11] = test system: HCT-116 colon
[12] = test system: HCT-15 colon
[13] = test system: HL-60(TB) leukemia
[14] = test system: HOP-18 NSCLC
[15] = test system: HOP-62 NSCLC
[16] = test system: HOP-92 NSCLC
[17] = test system: HT29 colon
[18] = test system: IGROV1 ovarian
[19] = test system: K-562 leukemia
[20] = test system: KM12 colon
[21] = test system: KM20L2 colon
[22] = test system: LOX IMVI melanoma
[23] = test system: M19-MEL melanoma
[24] = test system: MALME-3M melanoma
[25] = test system: MCF7 breast
[26] = test system: MOLT-4 leukemia
[27] = test system: NCI-H226 lung
[28] = test system: NCI-H23 lung
[29] = test system: NCI-H460 lung
[30] = test system: NCI-H522 lung
[31] = test system: NCI/ADR-RES ovarian
[32] = test system: OVCAR-3 ovarian
[33] = test system: OVCAR-4 ovarian
[34] = test system: OVCAR-5 ovarian
[35] = test system: OVCAR-8 ovarian
[36] = test system: P388 leukemia
[37] = test system: P388/ADR leukemia
[38] = test system: RPMI-8226 leukemia
[39] = test system: RXF 393 renal
[40] = test system: SF-268 CNS
[41] = test system: SF-295 CNS
[42] = test system: SF-539 CNS
[43] = test system: SK-MEL-2 melanoma
[44] = test system: SK-MEL-28 melanoma
[45] = test system: SK-MEL-5 melanoma
[46] = test system: SK-OV-3 ovarian
[47] = test system: SN12C renal
[48] = test system: SN12K1 renal
[49] = test system: SNB-19 CNS
[50] = test system: SNB-75 CNS
[51] = test system: SNB-78 CNS
[52] = test system: SW-620 colon
[53] = test system: U251 CNS
[54] = test system: UACC-257 melanoma
[55] = test system: UACC-62 melanoma
[56] = test system: UO-31 renal
[57] = test system: XF 498 CNS

With `O=C1C(CO)=C[C@H](O)[C@H]2O[C@@H]12` the TGI [1] was 519 µM, the TGI [2] was over 394 µM and the TGI [3] was 514 µM. It also gave a TGI [4] of 418 µM, a TGI [5] of 209 µM and a TGI [6] of 227 µM. For the same compound, the TGI [7] was 296 µM, the TGI [8] was 485 µM and the TGI [9] was 215 µM. The TGI [10] was over 508 µM, the TGI [11] was 225 µM and the TGI [12] was 278 µM. It also gave a TGI [13] of 253 µM, a TGI [14] of over 625 µM and a TGI [15] of over 612 µM. The TGI [16] was 525 µM, the TGI [17] was over 625 µM and the TGI [18] was 473 µM. It also gave a TGI [19] of 439 µM, a TGI [20] of 219 µM and a TGI [21] of over 625 µM. The TGI [22] was over 393 µM, the TGI [23] was 292 µM and the TGI [24] was 319 µM. It also gave a TGI [25] of 271 µM, a TGI [26] of 355 µM and a TGI [27] of 371 µM. It also gave a TGI [28] of 588 µM, a TGI [29] of 420 µM and a TGI [30] of 164 µM. It also gave a TGI [31] of 449 µM, a TGI [32] of 406 µM and a TGI [33] of 317 µM. The TGI [34] was 346 µM, the TGI [35] was 325 µM and the TGI [36] was 195 µM. For the same compound, the TGI [37] was 225 µM, the TGI [38] was 332 µM and the TGI [39] was 402 µM. The TGI [40] was 298 µM, the TGI [41] was 177 µM and the TGI [42] was over 562 µM. It also gave a TGI [43] of 345 µM, a TGI [44] of 294 µM and a TGI [45] of 389 µM. The TGI [46] was 561 µM, the TGI [47] was 265 µM and the TGI [48] was 278 µM. The TGI [49] was over 625 µM, the TGI [50] was 561 µM and the TGI [51] was 480 µM. For the same compound, the TGI [52] was 284 µM, the TGI [53] was 381 µM and the TGI [54] was 387 µM. For the same compound, the TGI [55] was 215 µM, the TGI [56] was 507 µM and the TGI [57] was 359 µM.
`COc1cc(-c2ccc(N=Nc3ccc4c(S(=O)(=O)O)cc(S(=O)(=O)O)c(N)c4c3O)c(OC)c2)ccc1N=Nc1ccc2c(S(=O)(=O)O)cc(S(=O)(=O)O)c(N)c2c1O` was tested, and the TGI [1] was over 100 µM, the TGI [2] was over 100 µM and the TGI [4] was over 100 µM. The TGI [5] was over 100 µM, the TGI [6] was over 100 µM and the TGI [7] was over 100 µM. It also gave a TGI [8] of over 100 µM, a TGI [9] of over 100 µM and a TGI [10] of over 100 µM. It also gave a TGI [11] of over 100 µM, a TGI [12] of over 100 µM and a TGI [13] of over 62.6 µM. For the same compound, the TGI [14] was 98.1 µM, the TGI [15] was over 100 µM and the TGI [16] was over 100 µM. It also gave a TGI [17] of over 100 µM, a TGI [18] of over 100 µM and a TGI [19] of over 100 µM. For the same compound, the TGI [20] was over 100 µM, the TGI [21] was over 100 µM and the TGI [22] was over 100 µM. For the same compound, the TGI [23] was over 100 µM, the TGI [24] was over 100 µM and the TGI [25] was over 100 µM. It also gave a TGI [26] of over 100 µM, a TGI [27] of over 100 µM and a TGI [28] of over 100 µM. It also gave a TGI [29] of over 100 µM, a TGI [30] of over 100 µM and a TGI [31] of over 100 µM. The TGI [32] was over 100 µM, the TGI [33] was over 100 µM and the TGI [34] was over 100 µM. For the same compound, the TGI [35] was over 100 µM, the TGI [36] was over 100 µM and the TGI [37] was over 100 µM. The TGI [38] was over 100 µM, the TGI [39] was over 100 µM and the TGI [40] was over 100 µM. For the same compound, the TGI [41] was over 100 µM, the TGI [42] was over 100 µM and the TGI [43] was over 100 µM. It also gave a TGI [44] of over 100 µM, a TGI [45] of over 100 µM and a TGI [46] of over 100 µM. The TGI [47] was over 100 µM, the TGI [48] was over 100 µM and the TGI [49] was over 100 µM. The TGI [50] was over 100 µM, the TGI [51] was over 100 µM and the TGI [52] was over 100 µM. It also gave a TGI [53] of over 100 µM, a TGI [54] of over 100 µM and a TGI [55] of over 100 µM. For the same compound, the TGI [56] was over 100 µM and the TGI [57] was over 100 µM.
